What was measured:
[1] = system: AML-12 mouse hepatocyte cell line; assay: Oil Red O staining, lipid content of AML-12 hepatocytes (Example 1); format: cell-based; settings: AML-12 cells, 24 hours
AML-12 hepatocytic cells = assay: Fat accumulation in AML-12 cells: Oil Red O staining and cellular triglyceride (Example 7); settings: twenty-four hours; for intracellular triglyceride levels / lipid accumulation by Oil Red O staining / blockade of the effect of NECA on hepatocyte triglyceride accumulation: NECA 10 mM; for blockade of the effect of NECA on hepatocyte triglyceride accumulation: MRS1706 1 mM
Procedure: Hepatocyte cell culture, triglyceride measurement and oil red O staining of hepatocytes. […] AML-12 Cells were grown in 1:1 mixture of DMEM-Ham's F-12 medium supplemented with 0.005 mg/ml insulin, 0.005 mg/ml transferrin, 5 ng/ml selenium, 40 ng/ml dexamethasone, 10% fetal bovine serum and antibiotics. Upon reaching 70-80% confluence the cells were treated for 6 hours in serum-free DMEM-Ham's F-12 medium and then treated with different adenosine receptor agonists, antagonists or vehicle (DSMO, 1.28×10^−5M), respectively. The method of the triglyceride measurement of hepatocytes is the same as the liver tissue. The cells were fixed with 10% neutral formalin, and Oil Red O staining as described above.

[2] = system: fatty acid synthase (FAS) mRNA; assay: Real-time PCR of FAS mRNA in cultured AML-12 hepatocytes; format: cell-based, mouse; settings: AML-12 cells, 24 hours; for mRNA for FAS: 10^-6M, control 100.0%, n=3
Procedure: (§1) Total RNA was isolated from cultured hepatocytes using Trizol reagent (Invitrogen, USA) and RNA extracted according to the manufacturer's instructions, then dissolved in sterile DEPC water and stored at −80° C. 1 μg RNA of sample RNA was transcribed to cDNA with the GeneAmp RNA Core Kit (Applied Biosystems, Branchburg, N.J.). Primer sequences ATP citrate lyase (ACL): forward 5′-GAAGCTGACCTTGCTGAACC-3′, reverse 5′-CTGCCTCCAATGATGAGGAT-3′; fatty acid synthase (FAS): forward 5′-TGGGTTCTAGCCAGCAGAGT-3′, reverse: 5′-ACCACCAGAGACCGTTATGC-3′. PCR was performed with the SYBR Green PCR Kit (Applied Biosystems, Foster City, Calif.) following the manufacturer's instructions and carried out on the Mx3005P™ Q-PCR system (Stratagene, La Jolla, Calif.) in 50 μl volume. The number of copies for each amplicon was calculated by Mx3005P software, normalized to GAPDH and expressed as a dimensionless ratio.

[3] = system: ATP citrate lyase (ACL) mRNA; assay: Real-time PCR of ACL mRNA in cultured AML-12 hepatocytes; format: cell-based, mouse; settings: AML-12 cells, 24 hours; for mRNA for ACL: 10^-6M, control 100.0%, n=3
Procedure: as §1

[4] = system: ethanol-induced fatty liver in C57Bl/6 mice; assay: Ethanol-induced fatty liver in mice treated with adenosine receptor antagonists (Example 5); format: in vivo, mouse; settings: ethanol diet 6 weeks, 50 mg/Kg/Day, versus ethanol-treated wild type mice
Description: Mouse models of fatty livers and treatment. Mice were fed an ethanol-containing liquid Lieber-De-Carli diet (ethanol provides 350 Kcal/L) or a calorie equivalent diet supplemented with maltose (BioServ Inc., Frenchtown, N.J.) for 6 weeks. […] In first week, animals were gradually introduced to the ethanol diet following the manufacturer's instructions. Mice were sacrificed by CO2 narcosis at the end of the experiment and their livers were collected. Two wild type mice and one CD73 knockout mouse on an ethanol-containing diet died, and none of the antagonist-treated or other knockout mice died during the course of these experiments.
Hematoxylin-Eosin (H&E) and Oil Red O staining of liver sections. Livers were fixed with 10% neutral formalin, embedded in paraffin and stained with H&E for histological examination. Liver steatosis was graded as previously described (Hong et al., Hepatology (2004) 40:933-941) based on the semiquantitative estimation of the percentage of lipid-laden hepatocytes in the liver according to the following criteria: grade 0: no hepatocytes involved; grade 1: 1% to 25% of hepatocytes involved; grade 2: 26% to 50% of hepatocytes involved; grade 3: 51% to 75% of hepatocytes involved; and grade 4: 76% to 100% of hepatocytes involved. At least five random different high power fields (hpf) of each cross-section (400× magnification) were graded in a blinded way. […]
Measurements of serum AST and triglyceride. […] AST and triglyceride were measured by standard techniques in the Clinical Laboratory of Bellevue Hospital. […]
Materials and Methods. […] The liver and body of the mice were weighed on the day of sacrifice and the liver/total body weight ratio calculated. The serum AST and triglyceride and hepatic tissue triglyceride levels were also measured, as described in Example 3, supra. […]

[5] = system: ACL, FAS, ACCα, CPTI, PPARα, PPARγ and SREBP1 mRNA in mouse liver tissue; assay: Real-time PCR of hepatic mRNA expression in ethanol-fed mice (Example 6); format: in vivo; settings: chronic ethanol ingestion, 50 mg/Kg/Day, n=5
Procedure: Real-time PCR quantitation of mRNA. Total RNA was isolated from liver tissue using Trizol reagent (Invitrogen, USA) and RNA extracted according to the manufacturer's instructions, then dissolved in sterile DEPC water and stored at −80° C. 1 μg of sample RNA was transcribed to cDNA with the GeneAmp RNA Core Kit (Applied Biosystems, Branchburg, N.J.). […] The number of copies for each amplicon was calculated by Mx3005P software, normalized to GAPDH and expressed as a dimensionless ratio.
Materials and methods. mRNA expression of genes in hepatic tissue was assessed by Real-time PCR and normalized to GAPDH. […] The number of copies for each amplicon was calculated by Mx3005P software, normalized to GAPDH and expressed as a dimensionless ratio.

SMILES	intracellular triglyceride levels (AML-12 hepatocytic cells; CPA 1 mM)	lipid accumulation by Oil Red O staining (AML-12 hepatocytic cells; CPA 1 mM)	mRNA for FAS [2] [%]	mRNA for ACL [3] [%]	serum AST levels [4]	blockade of the effect of NECA on hepatocyte triglyceride accumulation (AML-12 hepatocytic cells; DPCPX 1mM)	other results
OC[C@H]1O[C@@H](n2cnc3c(NC4CCCC4)ncnc32)[C@H](O)[C@@H]1O [CPA, N6-cyclopentyladenosine]	increased	accumulated lipid	164.2±6.8	181.4±12.9	–	–	lipid content of hepatocytes ([1]; CPA 10^-6M, Oil Red O): significantly increased
CCCn1c(=O)c2[nH]c(C3CCCC3)nc2n(CCC)c1=O [DPCPX, 1,3 dipropyl-8-cyclopentylxantine]	–	–	105.8±5.3	92.0±5.2	significantly lower	partly blocked	blockade of the effect of CPA on lipid content of hepatocytes ([1]; CPA 10^-6M + DPCPX 10^-6M): nearly completely blocked; blockade of the effect of CPA on hepatocyte triglyceride accumulation (AML-12 hepatocytic cells; CPA 1 mM, DPCPX 1mM): almost completely abrogated; blockade of the CPA-induced increase of mRNA for FAS [2]: completely blocked; blockade of the CPA-induced increase of mRNA for ACL [3]: completely blocked; ethanol-induced change of mRNA expression of ACCα, CPT1 and PPARα in liver [5]: reduced; ethanol-induced mRNA expression of ACL, FAS, PPARγ and SREBP1 in liver [5]: prevented the ethanol-induced increase in expression
CCCn1c(=O)c2[nH]c(-c3ccc(OCC(=O)Nc4ccc(C(C)=O)cc4)cc3)nc2n(CCC)c1=O [MRS1706, N-(4-aceptylphenyl)-2-[4-(2,3,6,7-tetrahydro-2,6-dioxo-1,3-dipropyl-1H-purine-8-yl)phenoxy]acetamide]	–	–	–	–	–	almost completely abrogated	–
CCNC(=O)[C@H]1O[C@@H](n2cnc3c(N)ncnc32)[C@H](O)[C@@H]1O [NECA, 5′-N-ethylcarboxamidoadenosine]	increased	accumulated lipid	–	–	–	–	–
CCCn1c(=O)[nH]c(=O)c2[nH]cnc21 [enprofylline, 3-propylxanthine]	–	–	–	–	significantly lower	–	serum triglyceride levels [4]: significant reduction
